pIC50: −log10 of the molar value. Blank lines part the entries; values can stand above or below the compound they belong to.
Biological target: T1, human FSH receptor (Homo sapiens, UniProt P23945)
T1 construct: expressed in transfected cells; host or cells: CHO cells (hFSHR clone 16)
T1 sequence (P23945 18-695): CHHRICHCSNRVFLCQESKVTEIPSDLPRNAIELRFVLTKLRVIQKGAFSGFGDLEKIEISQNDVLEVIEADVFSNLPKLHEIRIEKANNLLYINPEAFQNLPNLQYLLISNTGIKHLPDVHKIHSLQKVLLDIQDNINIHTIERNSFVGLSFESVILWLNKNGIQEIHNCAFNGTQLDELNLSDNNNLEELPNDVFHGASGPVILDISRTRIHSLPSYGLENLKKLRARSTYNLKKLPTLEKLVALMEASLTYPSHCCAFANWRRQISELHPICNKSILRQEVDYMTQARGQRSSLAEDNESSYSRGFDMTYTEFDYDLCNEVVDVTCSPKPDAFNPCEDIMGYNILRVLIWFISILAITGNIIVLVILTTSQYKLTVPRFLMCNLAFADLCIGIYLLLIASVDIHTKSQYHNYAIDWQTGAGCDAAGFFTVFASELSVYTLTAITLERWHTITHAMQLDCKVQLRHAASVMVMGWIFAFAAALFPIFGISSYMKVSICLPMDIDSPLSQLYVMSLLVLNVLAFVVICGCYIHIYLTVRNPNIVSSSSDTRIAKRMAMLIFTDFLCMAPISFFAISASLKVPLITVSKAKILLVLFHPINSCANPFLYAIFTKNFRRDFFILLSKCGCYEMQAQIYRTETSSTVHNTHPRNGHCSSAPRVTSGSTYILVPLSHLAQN
Assay: HTRF assay for measuring cAMP in cells, FSH-antagonistic effect (in the presence of hFSH)
Assay type: cell-based
Conditions: hFSHR clone 16 cells (CHO cells stably transfected with the human FSH receptor), in the presence of 1e-9 mol/l hFSH, 37° C. for 2 h
Description: […]

pIC50: 6.05
Compound: COc1ccc2nc(/C=C/c3ccc(OC)c(OC)c3)cc(C(=O)N[C@@H](CO)Cc3c[nH]c4ccccc34)c2c1 [Example 38, 2-[(E)-2-(3,4-Dimethoxyphenyl)ethenyl]-N-[(R)-1-(hydroxymethyl)-2-(1H-indol-3-yl)ethyl]-6-methoxyquinoline-4-carboxamide]

pIC50: 5.22
Compound: CC(C)c1cccc(-c2cccc(C(=O)N[C@@H](CO)Cc3c[nH]c4ccccc34)c2)c1 [Example 59, N-[(R)-1-(Hydroxymethyl)-2-(1H-indol-3-yl)ethyl]-3′-(1-methylethyl)[1,1′-biphenyl]-3-carboxamide]

pIC50: 5.10
Compound: CC(C)c1cccc(-c2ccccc2C(=O)N[C@@H](CO)Cc2c[nH]c3ccccc23)c1 [Example 86, N-[(R)-1-(Hydroxymethyl)-2-(1H-indol-3-yl)ethyl]-3′-(1-methylethyl)[1,1′-biphenyl]-2-carboxamide]

pIC50: 5.00
Compound: COc1ccc(OC)c(-c2cccc(C(=O)N[C@@H](CO)Cc3c[nH]c4ccccc34)c2)c1 [Example 87, N-[(R)-1-(Hydroxymethyl)-2-(1H-indol-3-yl)ethyl]-2′,5′-dimethoxy-[1,1′-biphenyl]-3-carboxamide]

Second part, the compound before the results:

Compound: COc1cc(-c2cc(C(=O)NC(CO)Cc3c[nH]c4ccc(Br)cc34)c3ccccc3n2)cc(OC)c1OC (racemic) [Example 1, N-[(R,S)-2-(5-Bromo-1H-indol-3-yl)-1-(hydroxymethyl)ethyl]-2-(3,4,5-trimethoxyphenyl)quinoline-4-carboxamide]
pIC50: 5.15

Compound: COc1cc(-c2cc(C(=O)NC(CO)Cc3c[nH]c4cc(F)ccc34)c3ccccc3n2)cc(OC)c1OC (racemic) [Example 8, N-[(R,S)-2-(6-Fluoro-1H-indol-3-yl)-1-(hydroxymethyl)ethyl]-2-(3,4,5-trimethoxyphenyl)quinoline-4-carboxamide]
pIC50: 6.00

Compound: COc1cc(-c2cc(C(=O)NC(CO)Cc3c[nH]c4ccc(OCc5ccccc5)cc34)c3ccccc3n2)cc(OC)c1OC (racemic) [Example 9, N-[(R,S)-1-(Hydroxymethyl)-2-[5-(phenylmethoxy)-1H-indol-3-yl]ethyl]-2-(3,4,5-trimethoxyphenyl)quinoline-4-carboxamide]
pIC50: 6.70

Compound: COc1cc(-c2cc(C(=O)NC(CO)Cc3c[nH]c4c(C)cccc34)c3ccccc3n2)cc(OC)c1OC (racemic) [Example 10, N-[(R,S)-1-(Hydroxymethyl)-2-(7-methyl-1H-indol-3-yl)ethyl]-2-(3,4,5-trimethoxyphenyl)quinoline-4-carboxamide]
pIC50: 6.00

Compound: COc1ccc2nc(-c3ccc(OC)c(OC)c3OC)cc(C(=O)N[C@@H](CO)Cc3c[nH]c4ccccc34)c2c1 [Example 16, N-[(R)-1-(Hydroxymethyl)-2-(1H-indol-3-yl)ethyl]-6-methoxy-2-(2,3,4-trimethoxyphenyl)quinoline-4-carboxamide]
pIC50: 5.40

Compound: COc1cc(-c2cc(C(=O)N[C@@H](CO)Cc3c[nH]c4ccccc34)c3cc(F)ccc3n2)cc(OC)c1OC [Example 17, 6-Fluoro-N-[(R)-1-(hydroxymethyl)-2-(1H-indol-3-yl)ethyl]-2-(3,4,5-trimethoxyphenyl)quinoline-4-carboxamide]
pIC50: 6.40

Compound: COc1cc(-c2cc(C(=O)N[C@@H](CO)Cc3c[nH]c4ccccc34)c3cc([N+](=O)[O-])ccc3n2)cc(OC)c1OC [Example 19, N-[(R)-1-(Hydroxymethyl)-2-(1H-indol-3-yl)ethyl]-6-nitro-2-(3,4,5-trimethoxyphenyl)quinoline-4-carboxamide]
pIC50: 5.22

Compound: COc1ccc2nc(-c3cc(OC)c(OC)c(OC)c3)cc(C(=O)N[C@@H](CO)Cc3cn(C)c4ccccc34)c2c1 [Example 22, N-[(R)-1-(Hydroxymethyl)-2-(1-methyl-1H-indol-3-yl)ethyl]-6-methoxy-2-(3,4,5-trimethoxyphenyl)quinoline-4-carboxamide]
pIC50: 6.52

Compound: O=C(N[C@@H](CO)Cc1c[nH]c2ccccc12)c1cc(-c2ccc3c(c2)CCO3)nc2ccccc12 [Example 36, 2-(2,3-Dihydrobenzofuran-5-yl)-N-[(R)-1-(hydroxymethyl)-2-(1H-indol-3-yl)ethyl]quinoline-4-carboxamide]
pIC50: 5.22

From patent US20070060573A1, “Acyltryptophanols” (priority 2005, published 2007)
